Tests used:
[1] = test system: intestinal epithelial cell line T84 monolayers; assay: Effect of LC-PUFA on basal (spontaneous) barrier integrity: TER and 4 kDa FITC-dextran flux; type: cell-based, human; conditions: for Flux / Resistance (TER): fatty acid 100 μM, 72 hr incubation, spontaneous barrier integrity; for Flux: 4 kDa FITC-dextran; for basal barrier integrity (TER), time and dose dependent effect: FIGS. 1A and 1B, 10 μM and 100 μM
Procedure: (§1) Monolayers (MC) of intestinal epithelial cell lines T84 (American Type Culture Collection (ATTC), Manassas, USA) were cultured on transwell filters (Corning, Costar BV, The Netherlands) allowing both mucosal and serosal sampling and stimulation of human intestinal epithelial cells. Two weeks post confluency the monolayers were incubated in the luminal compartment with polyunsaturated fatty acids ARA (arachidonic acid; 5,8,11,14-eicosatetraenoic acid), DHA (cis-4,7,10,13,16,19 docosahexaenoic acid), EPA (eicosapentaenoic acid) or control palmitic (C 16:0) acid (Palm) (Sigma, St. Louis, USA). The latter procedure was chosen to mimic the in vivo administration route of the dietary compounds. Cells were incubated with ARA, DHA, EPA, or palmitic acid for 0, 24, 48 and 72 hr at different concentrations (10 μM and 100 μM). Experiments were performed to evaluate basal barrier integrity. The epithelial barrier function was determined by measuring the transepithelial resistance (TER, Ω·cm^2) was measured by epithelial volt-ohm meter (EVOM; World Precision Instruments, Germany) and permeability for 4 kD FITC dextran (paracellular permeability marker, Sigma, USA). Resistance (Epithelial permeability for 4 kDa FITC-dextran was determined as follows. Prior to dextran fluxes the medium was refreshed with culture medium without phenol red for one hour followed by addition of 5 μl (stock 100 mg/ml) 4 kDa FITC-dextran to the lumenal compartment. After 30 min incubation 100 μl sample was collected from the serosal compartment and the fluorescent signal measured at excitation wavelength 485 nm and emission 520 nm (FLUOstar Galaxy®, BMG Labtechnologies, USA). FITC-dextran fluxes were calculated as pmol FITC-dextran/cm^2/h. Statistical analyses were performed using the ANOVA (SPSS version 10).

[2] = test system: intestinal epithelial cell line T84 monolayers incubated with IL-4; assay: Effect of LC-PUFA on IL-4 mediated barrier disruption: TER and 4 kDa FITC-dextran flux; type: cell-based, human; conditions: for IL-4 Flux / IL-4 TER: fatty acid 100 μM, 48 hr pre-incubation then 48 hr co-incubation with IL-4 2 ng/ml; for protective effect on IL-4 mediated barrier destruction (Flux), time and dose dependent: FIGS. 2A and 2B, 10 μM and 100 μM, 4 kD dextran flux
Procedure: as §1
Monolayers (MC) of intestinal epithelial cell lines T84 (ATCC, USA) were cultured on transwell filters (Corning, Costar BV, The Netherlands) allowing both mucosal and serosal sampling and stimulation of human intestinal epithelial cells. Two weeks post confluency the monolayers were incubated in the presence of IL-4 (2 ng/ml, serosal compartment, Sigma, USA) with or without polyunsaturated fatty acids ARA, DHA, GLA, EPA, or control palmitic acid (10 μM or 100 μM, mucosal compartment, Sigma, St. Louis, USA). Cells were pre-incubated with ARA, DHA, EPA, or palmitic acid for 48 hr prior to the IL-4 incubation. The co-incubation of PUFA's and palmetic acid with IL-4 was continued for another 48 hr; while culture medium and additives were changed every 24 hr. The epithelial barrier function was determined by measuring the transepithelial resistance (TER) and permeability as described in example 1. Statistical evaluation was performed as described in example 1.

[3] = test system: MUC-2 expression in intestinal epithelial T84 cells; conditions: FIG. 4, 24 h, 0.025-4.0 mM, compared to propionate and butyrate

| Compound | Flux [1] [pmol FITC-dextran/cm^2/h] | Resistance (TER) [1] | IL-4 Flux [2] [pmol FITC-dextran/cm^2/h] | IL-4 TER [2] | MUC-2 expression (mucus production) [3] | basal barrier integrity (TER), time and dose dependent effect [1] | protective effect on IL-4 mediated barrier destruction (Flux), time and dose dependent [2] |
| --- | --- | --- | --- | --- | --- | --- | --- |
| CCCCCCCCCCCCCCCC(=O)O [Palmitic acid, palmitic (C 16:0) acid, reference compound] | 161 | 831 Ω·cm^2 | 777 | 321 Ω·cm^2 | – | – | – |
| CC(=O)O [acetate] | – | – | – | – | more potent in stimulating MUC-2 expression | – | – |
| CCCCC/C=C\C/C=C\C/C=C\C/C=C\CCCC(=O)O [ARA, 5,8,11,14-eicosatetraenoic acid] | 28 | 1816 Ω·cm^2 | 218 | 636 Ω·cm^2 | – | increased resistance | decreased 4 kD dextran flux |
| CC/C=C\C/C=C\C/C=C\C/C=C\C/C=C\CCCC(=O)O [EPA, eicosapentaenoic acid] | 65 | 1493 Ω·cm^2 | 228 | 539 Ω·cm^2 | – | – | – |
| CCC=CCC=CCC=CCC=CCC=CC/C=C\CCC(=O)O [DHA, cis-4,7,10,13,16,19 docosahexaenoic acid] | 72 | 1574 Ω·cm^2 | 271 | 547 Ω·cm^2 | – | increased resistance | decreased 4 kD dextran flux |
| CCCCC/C=C\C/C=C\C/C=C\CCCCC(=O)O [GLA] | – | – | – | – | – | increased resistance | decreased 4 kD dextran flux |

From patent publication US10499676B2, “Intestinal barrier integrity” (N.V. Nutricia, priority 2004, dated 2019)
